Assay results as given in PubChem BioAssay (NCI).
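Compound exposure: 48 hours, 5 concentrations, 96-well plates. The concentration for full growth arrest is given as TGI.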

Columns and labels:
Experiment in all cases: NCI anticancer screen, dose series, 48 h
786-0 renal = test system: 786-0 renal
A498 renal = test system: A498 renal
A549 NSCLC = test system: A549 NSCLC
ACHN renal = test system: ACHN renal
BT-549 breast = test system: BT-549 breast
CAKI-1 renal = test system: CAKI-1 renal
CCRF-CEM leukemia = test system: CCRF-CEM leukemia
COLO 205 colon = test system: COLO 205 colon
DU-145 prostate = test system: DU-145 prostate
EKVX NSCLC = test system: EKVX NSCLC
HCC-2998 colon = test system: HCC-2998 colon
HCT-116 colon = test system: HCT-116 colon
HCT-15 colon = test system: HCT-15 colon
HL-60(TB) leukemia = test system: HL-60(TB) leukemia
HOP-62 NSCLC = test system: HOP-62 NSCLC
HOP-92 NSCLC = test system: HOP-92 NSCLC
HS 578T breast = test system: HS 578T breast
HT29 colon = test system: HT29 colon
IGROV1 ovarian = test system: IGROV1 ovarian
KM12 colon = test system: KM12 colon
LOX IMVI melanoma = test system: LOX IMVI melanoma
M14 melanoma = test system: M14 melanoma
MALME-3M melanoma = test system: MALME-3M melanoma
MCF7 breast = test system: MCF7 breast
MDA-MB-231 breast = test system: MDA-MB-231 breast
MDA-MB-435 = test system: MDA-MB-435
MDA-N = test system: MDA-N
MOLT-4 leukemia = test system: MOLT-4 leukemia
NCI-H23 lung = test system: NCI-H23 lung
NCI-H460 lung = test system: NCI-H460 lung
NCI-H522 lung = test system: NCI-H522 lung
NCI/ADR-RES ovarian = test system: NCI/ADR-RES ovarian
OVCAR-3 ovarian = test system: OVCAR-3 ovarian
OVCAR-4 ovarian = test system: OVCAR-4 ovarian
OVCAR-5 ovarian = test system: OVCAR-5 ovarian
OVCAR-8 ovarian = test system: OVCAR-8 ovarian
PC-3 prostate = test system: PC-3 prostate
RPMI-8226 leukemia = test system: RPMI-8226 leukemia
SF-268 CNS = test system: SF-268 CNS
SF-295 CNS = test system: SF-295 CNS
SF-539 CNS = test system: SF-539 CNS
SK-MEL-2 melanoma = test system: SK-MEL-2 melanoma
SK-MEL-28 melanoma = test system: SK-MEL-28 melanoma
SK-MEL-5 melanoma = test system: SK-MEL-5 melanoma
SK-OV-3 ovarian = test system: SK-OV-3 ovarian
SN12C renal = test system: SN12C renal
SNB-19 CNS = test system: SNB-19 CNS
SW-620 colon = test system: SW-620 colon
TK-10 renal = test system: TK-10 renal
U251 CNS = test system: U251 CNS
UACC-257 melanoma = test system: UACC-257 melanoma
UACC-62 melanoma = test system: UACC-62 melanoma
K-562 leukemia = test system: K-562 leukemia
NCI-H226 lung = test system: NCI-H226 lung
RXF 393 renal = test system: RXF 393 renal
SNB-75 CNS = test system: SNB-75 CNS
UO-31 renal = test system: UO-31 renal
SR leukemia = test system: SR leukemia
T-47D breast = test system: T-47D breast

Measured: TGI

CCC1C(C#N)=C(N)OC2=C1C(=O)CC(C)(C)C2 (stereo not drawn)
> 100 µM: 786-0 renal | A498 renal | A549 NSCLC | ACHN renal | BT-549 breast | CAKI-1 renal | CCRF-CEM leukemia | COLO 205 colon | DU-145 prostate | EKVX NSCLC | HCC-2998 colon | HCT-116 colon | HCT-15 colon | HL-60(TB) leukemia | HOP-62 NSCLC | HOP-92 NSCLC | HS 578T breast | HT29 colon | IGROV1 ovarian | KM12 colon | LOX IMVI melanoma | M14 melanoma | MALME-3M melanoma | MCF7 breast | MDA-MB-231 breast | MDA-MB-435 | MDA-N | MOLT-4 leukemia | NCI-H23 lung | NCI-H460 lung | NCI-H522 lung | NCI/ADR-RES ovarian | OVCAR-3 ovarian | OVCAR-4 ovarian | OVCAR-5 ovarian | OVCAR-8 ovarian | PC-3 prostate | RPMI-8226 leukemia | SF-268 CNS | SF-295 CNS | SF-539 CNS | SK-MEL-2 melanoma | SK-MEL-28 melanoma | SK-MEL-5 melanoma | SK-OV-3 ovarian | SN12C renal | SNB-19 CNS | SW-620 colon | TK-10 renal | U251 CNS | UACC-257 melanoma | UACC-62 melanoma

COc1ccc2nc(-n3c(/C=C/c4ccccc4O)nc4ccccc4c3=O)sc2c1
39.7 µM: EKVX NSCLC
> 100 µM: 786-0 renal | A498 renal | A549 NSCLC | ACHN renal | BT-549 breast | CAKI-1 renal | CCRF-CEM leukemia | COLO 205 colon | DU-145 prostate | HCC-2998 colon | HCT-15 colon | HL-60(TB) leukemia | HOP-62 NSCLC | HOP-92 NSCLC | HS 578T breast | HT29 colon | IGROV1 ovarian | KM12 colon | LOX IMVI melanoma | M14 melanoma | MALME-3M melanoma | MCF7 breast | MDA-MB-231 breast | MOLT-4 leukemia | NCI-H226 lung | NCI-H23 lung | NCI-H460 lung | NCI-H522 lung | NCI/ADR-RES ovarian | OVCAR-3 ovarian | OVCAR-4 ovarian | OVCAR-5 ovarian | OVCAR-8 ovarian | PC-3 prostate | RXF 393 renal | SF-268 CNS | SF-295 CNS | SK-MEL-2 melanoma | SK-MEL-28 melanoma | SK-OV-3 ovarian | SNB-19 CNS | SNB-75 CNS | SW-620 colon | TK-10 renal | U251 CNS | UACC-257 melanoma | UACC-62 melanoma | UO-31 renal
80.8 µM: RPMI-8226 leukemia
49.2 µM: MDA-MB-435
59.6 µM: K-562 leukemia
36.5 µM: MDA-N
66.2 µM: SK-MEL-5 melanoma
65.3 µM: HCT-116 colon

O=Nc1c(O)cc(Nc2ccc(Br)cc2)c2ccccc12
72.4 µM: SR leukemia
11.8 µM: SNB-19 CNS
> 31.2 µM: LOX IMVI melanoma
4.2 µM: SK-MEL-28 melanoma
55.9 µM: HL-60(TB) leukemia
26.6 µM: COLO 205 colon
> 51.9 µM: OVCAR-3 ovarian
3.33 µM: DU-145 prostate | UACC-257 melanoma
35 µM: SW-620 colon
> 86.9 µM: RPMI-8226 leukemia
17.8 µM: MCF7 breast
10.5 µM: NCI-H226 lung
3.03 µM: M14 melanoma
25.1 µM: ACHN renal
> 75 µM: K-562 leukemia
42 µM: MOLT-4 leukemia
50.3 µM: RXF 393 renal
3.41 µM: MDA-N
40.8 µM: U251 CNS
11 µM: NCI-H460 lung
19.4 µM: HCC-2998 colon
3.64 µM: SK-MEL-2 melanoma
23.7 µM: CAKI-1 renal
3.37 µM: MDA-MB-435
> 28.4 µM: HS 578T breast
> 59.2 µM: HCT-116 colon
30.8 µM: SK-OV-3 ovarian
3.47 µM: NCI-H23 lung
29.8 µM: OVCAR-5 ovarian
22.2 µM: A498 renal
37.2 µM: OVCAR-8 ovarian
2.98 µM: SF-295 CNS
> 73.8 µM: T-47D breast
28.1 µM: HT29 colon
15 µM: HCT-15 colon
45.2 µM: HOP-92 NSCLC
6.04 µM: A549 NSCLC
> 63.6 µM: SN12C renal
27.7 µM: TK-10 renal
19.1 µM: HOP-62 NSCLC
23 µM: UO-31 renal
33.1 µM: NCI/ADR-RES ovarian
> 55.6 µM: SF-268 CNS
27.3 µM: 786-0 renal
23.1 µM: KM12 colon
3.15 µM: SK-MEL-5 melanoma
> 100 µM: CCRF-CEM leukemia | EKVX NSCLC | IGROV1 ovarian | NCI-H522 lung | OVCAR-4 ovarian | PC-3 prostate | SF-539 CNS
48.3 µM: MDA-MB-231 breast

Cc1nc2cccc(F)c2c(=O)n1C1CCCCNC1=O (stereo not drawn)
> 10 µM: 786-0 renal | A549 NSCLC | ACHN renal | CAKI-1 renal | CCRF-CEM leukemia | COLO 205 colon | DU-145 prostate | EKVX NSCLC | HCC-2998 colon | HCT-116 colon | HCT-15 colon | HL-60(TB) leukemia | HOP-62 NSCLC | HOP-92 NSCLC | HS 578T breast | HT29 colon | IGROV1 ovarian | K-562 leukemia | KM12 colon | LOX IMVI melanoma | M14 melanoma | MCF7 breast | MDA-MB-231 breast | MDA-MB-435 | MDA-N | MOLT-4 leukemia | NCI-H226 lung | NCI-H23 lung | NCI-H460 lung | NCI-H522 lung | NCI/ADR-RES ovarian | OVCAR-3 ovarian | OVCAR-4 ovarian | OVCAR-5 ovarian | OVCAR-8 ovarian | PC-3 prostate | RPMI-8226 leukemia | RXF 393 renal | SF-268 CNS | SF-295 CNS | SF-539 CNS | SK-MEL-2 melanoma | SK-MEL-28 melanoma | SK-MEL-5 melanoma | SK-OV-3 ovarian | SN12C renal | SNB-19 CNS | SNB-75 CNS | SR leukemia | SW-620 colon | T-47D breast | TK-10 renal | U251 CNS | UACC-257 melanoma | UACC-62 melanoma | UO-31 renal
